From US11117892B2, “Pyrrolo-pyridine derivative compound, method for preparing same, and pharmaceutical composition containing same as active ingredient for prevention or treatment of protein kinase-related diseases” (DAEGU-GYEONGBUK MEDICAL INNOVATION FOUNDATION, priority 2017, dated 2021)
Like-named read-outs stand apart in the source and are kept apart here.

Key:
Test in all cases: scanMAX Kinase assay panel
Type in all cases: binding
Details in all cases: read-out: % control
CDK11 = CDK11 (Homo sapiens (Human), UniProt Q9BWU1)
Outline: (§1)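 Panel: scanMAX. Metric: % control. The 100% anchor is DMSO and the 0% anchor is the positive control.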

CDKL1 = CDKL1 (Homo sapiens (Human), UniProt Q00532)
Outline: as §1

[1] = molecular target: TYK2(JH2domain-pseudokinase) (Homo sapiens (Human), UniProt P29597)
TYK2(JH2domain-pseudokinase), sequence (P29597 589-875): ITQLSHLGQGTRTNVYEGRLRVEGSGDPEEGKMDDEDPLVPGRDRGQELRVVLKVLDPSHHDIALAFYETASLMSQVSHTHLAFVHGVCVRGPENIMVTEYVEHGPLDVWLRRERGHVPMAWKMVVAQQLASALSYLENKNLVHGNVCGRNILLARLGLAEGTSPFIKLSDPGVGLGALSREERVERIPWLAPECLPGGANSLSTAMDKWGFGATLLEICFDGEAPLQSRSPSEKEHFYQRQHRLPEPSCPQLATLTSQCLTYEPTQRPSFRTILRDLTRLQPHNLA
Outline: as §1

AMPK-alpha1 = AMPK-alpha1 (Homo sapiens (Human), UniProt Q13131)
AMPK-alpha1, sequence (Q13131 whole entry): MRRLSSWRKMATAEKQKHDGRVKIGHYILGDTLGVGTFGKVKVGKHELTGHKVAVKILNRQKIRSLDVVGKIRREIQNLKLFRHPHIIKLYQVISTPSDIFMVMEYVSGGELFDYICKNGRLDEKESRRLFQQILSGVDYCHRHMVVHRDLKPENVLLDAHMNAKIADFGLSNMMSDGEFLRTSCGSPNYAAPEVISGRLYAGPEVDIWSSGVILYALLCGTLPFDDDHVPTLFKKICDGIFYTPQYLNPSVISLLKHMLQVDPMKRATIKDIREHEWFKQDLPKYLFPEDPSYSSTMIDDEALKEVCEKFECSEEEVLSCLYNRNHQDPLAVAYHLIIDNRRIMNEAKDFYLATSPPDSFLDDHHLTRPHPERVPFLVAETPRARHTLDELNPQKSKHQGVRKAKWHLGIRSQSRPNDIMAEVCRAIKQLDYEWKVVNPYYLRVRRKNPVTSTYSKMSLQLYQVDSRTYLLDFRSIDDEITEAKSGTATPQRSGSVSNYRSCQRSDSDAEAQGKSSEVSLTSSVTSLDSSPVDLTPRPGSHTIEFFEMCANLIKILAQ
Outline: as §1

EPHA1 = EPHA1 (Homo sapiens (Human), UniProt P21709)
Outline: as §1

TGFBR1 = TGFBR1 (Homo sapiens (Human), UniProt P36897)
Outline: as §1

CAMK1B = CAMK1B (Homo sapiens (Human), UniProt Q6P2M8)
Outline: as §1

LKB1 = LKB1 (Homo sapiens (Human), UniProt Q15831)
Outline: as §1

ICK = ICK (Homo sapiens (Human), UniProt Q9UPZ9)
ICK, sequence (Q9UPZ9 whole entry): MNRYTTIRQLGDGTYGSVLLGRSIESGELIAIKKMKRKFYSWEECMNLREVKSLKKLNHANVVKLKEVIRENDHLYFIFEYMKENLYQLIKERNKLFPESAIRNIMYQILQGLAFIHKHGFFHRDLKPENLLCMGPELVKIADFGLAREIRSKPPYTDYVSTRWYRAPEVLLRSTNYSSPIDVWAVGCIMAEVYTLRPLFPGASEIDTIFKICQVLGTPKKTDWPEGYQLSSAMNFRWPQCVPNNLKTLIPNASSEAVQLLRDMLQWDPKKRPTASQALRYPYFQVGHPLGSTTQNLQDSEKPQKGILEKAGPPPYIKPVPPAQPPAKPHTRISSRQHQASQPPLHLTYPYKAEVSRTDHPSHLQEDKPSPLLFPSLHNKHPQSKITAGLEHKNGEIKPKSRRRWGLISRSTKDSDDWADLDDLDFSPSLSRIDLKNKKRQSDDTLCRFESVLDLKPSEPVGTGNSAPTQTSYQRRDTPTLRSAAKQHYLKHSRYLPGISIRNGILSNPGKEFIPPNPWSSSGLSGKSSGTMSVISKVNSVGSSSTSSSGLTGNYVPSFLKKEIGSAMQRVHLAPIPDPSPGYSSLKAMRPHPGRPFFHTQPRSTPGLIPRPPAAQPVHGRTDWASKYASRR
Outline: as §1

FLT3 = FLT3 (Homo sapiens (Human), UniProt P36888)
FLT3, sequence (P36888 27-993): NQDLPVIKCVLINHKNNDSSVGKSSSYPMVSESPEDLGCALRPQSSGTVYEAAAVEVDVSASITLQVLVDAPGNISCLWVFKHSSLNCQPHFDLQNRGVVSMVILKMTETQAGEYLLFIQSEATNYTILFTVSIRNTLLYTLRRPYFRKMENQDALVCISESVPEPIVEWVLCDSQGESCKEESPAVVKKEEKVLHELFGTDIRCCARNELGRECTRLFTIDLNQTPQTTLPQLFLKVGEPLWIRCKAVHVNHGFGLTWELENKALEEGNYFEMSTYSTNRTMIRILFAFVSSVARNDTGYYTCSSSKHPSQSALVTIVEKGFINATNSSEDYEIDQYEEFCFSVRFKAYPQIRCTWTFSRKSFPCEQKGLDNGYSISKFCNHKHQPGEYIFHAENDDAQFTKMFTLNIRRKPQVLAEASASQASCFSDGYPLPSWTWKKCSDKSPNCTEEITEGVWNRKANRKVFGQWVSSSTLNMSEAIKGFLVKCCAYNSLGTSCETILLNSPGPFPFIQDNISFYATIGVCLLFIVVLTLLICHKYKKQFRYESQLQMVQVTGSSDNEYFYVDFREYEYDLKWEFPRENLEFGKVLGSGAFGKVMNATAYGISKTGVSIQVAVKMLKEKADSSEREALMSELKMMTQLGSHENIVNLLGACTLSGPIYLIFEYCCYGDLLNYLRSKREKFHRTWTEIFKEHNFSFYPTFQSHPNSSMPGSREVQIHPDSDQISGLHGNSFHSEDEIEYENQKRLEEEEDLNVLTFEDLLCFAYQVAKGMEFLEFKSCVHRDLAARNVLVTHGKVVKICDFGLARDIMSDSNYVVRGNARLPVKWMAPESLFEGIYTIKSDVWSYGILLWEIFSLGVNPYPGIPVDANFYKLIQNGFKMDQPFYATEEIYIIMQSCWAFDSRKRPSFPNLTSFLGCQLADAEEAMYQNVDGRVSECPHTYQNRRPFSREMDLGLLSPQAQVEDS
Outline: as §1

ROS1 = ROS1 (Homo sapiens (Human), UniProt P08922)
ROS1, sequence (P08922 28-2347): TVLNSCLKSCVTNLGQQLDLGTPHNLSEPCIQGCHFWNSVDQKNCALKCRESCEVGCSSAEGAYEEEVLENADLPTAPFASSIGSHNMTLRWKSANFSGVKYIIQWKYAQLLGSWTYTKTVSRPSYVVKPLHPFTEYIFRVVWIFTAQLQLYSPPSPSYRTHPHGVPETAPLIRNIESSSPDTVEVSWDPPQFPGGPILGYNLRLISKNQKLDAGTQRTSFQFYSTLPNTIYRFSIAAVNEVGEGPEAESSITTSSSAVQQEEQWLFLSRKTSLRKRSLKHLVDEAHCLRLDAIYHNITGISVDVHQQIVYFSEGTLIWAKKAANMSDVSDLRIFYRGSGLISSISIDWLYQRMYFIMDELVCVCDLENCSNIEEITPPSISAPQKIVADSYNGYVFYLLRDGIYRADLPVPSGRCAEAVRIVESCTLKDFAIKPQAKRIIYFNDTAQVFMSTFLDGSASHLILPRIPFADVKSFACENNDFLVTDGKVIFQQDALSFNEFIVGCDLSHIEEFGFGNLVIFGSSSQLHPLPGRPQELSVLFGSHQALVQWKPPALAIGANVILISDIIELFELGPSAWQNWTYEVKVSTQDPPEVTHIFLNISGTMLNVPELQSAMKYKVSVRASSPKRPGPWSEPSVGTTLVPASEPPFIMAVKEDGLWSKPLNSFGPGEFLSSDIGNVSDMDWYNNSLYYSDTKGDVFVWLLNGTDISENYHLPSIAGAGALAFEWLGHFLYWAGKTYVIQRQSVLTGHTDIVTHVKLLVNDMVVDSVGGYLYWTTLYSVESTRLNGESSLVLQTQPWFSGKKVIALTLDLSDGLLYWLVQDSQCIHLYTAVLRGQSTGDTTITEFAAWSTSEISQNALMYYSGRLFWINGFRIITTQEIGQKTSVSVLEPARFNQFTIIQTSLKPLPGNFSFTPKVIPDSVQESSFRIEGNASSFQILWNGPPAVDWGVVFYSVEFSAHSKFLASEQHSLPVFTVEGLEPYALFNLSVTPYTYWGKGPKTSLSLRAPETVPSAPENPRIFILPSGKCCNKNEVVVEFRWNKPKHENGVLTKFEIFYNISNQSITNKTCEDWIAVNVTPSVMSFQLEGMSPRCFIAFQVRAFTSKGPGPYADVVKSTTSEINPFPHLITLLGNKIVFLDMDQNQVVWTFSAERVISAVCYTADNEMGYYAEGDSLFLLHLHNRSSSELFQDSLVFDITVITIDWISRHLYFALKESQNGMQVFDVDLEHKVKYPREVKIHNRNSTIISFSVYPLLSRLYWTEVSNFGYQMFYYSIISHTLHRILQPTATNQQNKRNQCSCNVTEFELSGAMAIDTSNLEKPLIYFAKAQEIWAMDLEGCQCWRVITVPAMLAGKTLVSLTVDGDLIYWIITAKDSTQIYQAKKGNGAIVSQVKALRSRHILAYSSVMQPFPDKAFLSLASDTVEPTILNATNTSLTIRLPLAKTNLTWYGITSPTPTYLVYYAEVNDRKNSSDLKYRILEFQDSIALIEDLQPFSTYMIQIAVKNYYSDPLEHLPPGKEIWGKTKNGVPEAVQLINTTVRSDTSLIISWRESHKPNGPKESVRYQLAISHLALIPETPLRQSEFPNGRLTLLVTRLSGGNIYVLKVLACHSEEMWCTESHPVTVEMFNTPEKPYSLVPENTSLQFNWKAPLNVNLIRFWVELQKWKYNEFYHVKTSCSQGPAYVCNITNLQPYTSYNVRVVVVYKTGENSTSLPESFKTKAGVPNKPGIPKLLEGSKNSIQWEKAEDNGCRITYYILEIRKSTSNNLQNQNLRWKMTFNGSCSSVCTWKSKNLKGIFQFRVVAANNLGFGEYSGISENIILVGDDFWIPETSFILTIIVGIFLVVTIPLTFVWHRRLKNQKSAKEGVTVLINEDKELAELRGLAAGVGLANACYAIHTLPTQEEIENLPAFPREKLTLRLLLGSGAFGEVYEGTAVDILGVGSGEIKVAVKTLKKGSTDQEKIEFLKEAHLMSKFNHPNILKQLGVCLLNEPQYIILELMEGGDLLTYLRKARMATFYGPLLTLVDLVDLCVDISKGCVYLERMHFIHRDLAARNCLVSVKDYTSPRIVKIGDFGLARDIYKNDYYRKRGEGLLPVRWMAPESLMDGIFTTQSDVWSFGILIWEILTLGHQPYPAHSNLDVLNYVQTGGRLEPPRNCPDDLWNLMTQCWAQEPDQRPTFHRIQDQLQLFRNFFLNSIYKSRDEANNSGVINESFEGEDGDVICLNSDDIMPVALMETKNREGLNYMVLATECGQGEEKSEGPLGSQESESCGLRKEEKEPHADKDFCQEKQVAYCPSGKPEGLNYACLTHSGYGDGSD
Outline: as §1

NDR2 = NDR2 (Homo sapiens (Human), UniProt Q9Y2H1)
Outline: as §1

RIOK3 = RIOK3 (Homo sapiens (Human), UniProt O14730)
Outline: as §1

RIPK1 = RIPK1 (Homo sapiens (Human), UniProt Q13546)
Outline: as §1

PLK1 = PLK1 (Homo sapiens (Human), UniProt P53350)
Outline: as §1

NEK5 = NEK5 (Homo sapiens (Human), UniProt Q6P3R8)
Outline: as §1

CSF1R = CSF1R (Homo sapiens (Human), UniProt P07333)
Outline: as §1

PDGFRA = PDGFRA (Homo sapiens (Human), UniProt P16234)
Outline: as §1

PAK4 = PAK4 (Homo sapiens (Human), UniProt O96013)
Outline: as §1

ZAK = ZAK (Homo sapiens (Human), UniProt Q9NYL2)
Outline: as §1

TIE2 = TIE2 (Homo sapiens (Human), UniProt Q02763)
Outline: as §1

MLCK = MLCK (Homo sapiens (Human), UniProt Q32MK0)
Outline: as §1

[2] = molecular target: RSK3(Kin.Dom.1-N-terminal) (Homo sapiens (Human), UniProt Q15349)
RSK3(Kin.Dom.1-N-terminal), sequence (Q15349 59-318): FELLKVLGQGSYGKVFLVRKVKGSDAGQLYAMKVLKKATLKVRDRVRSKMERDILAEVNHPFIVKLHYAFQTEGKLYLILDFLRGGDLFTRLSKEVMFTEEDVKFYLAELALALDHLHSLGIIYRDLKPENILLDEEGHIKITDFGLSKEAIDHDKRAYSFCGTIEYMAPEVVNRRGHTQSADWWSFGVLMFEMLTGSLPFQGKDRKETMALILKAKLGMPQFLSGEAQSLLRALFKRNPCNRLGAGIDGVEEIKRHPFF
Outline: as §1

CHEK1 = CHEK1 (Homo sapiens (Human), UniProt O14757)
Outline: as §1

PCTK1 = PCTK1 (Homo sapiens (Human), UniProt Q00536)
Outline: as §1

QSK = QSK (Homo sapiens (Human), UniProt Q9Y2K2)
Outline: as §1

CDKL3 = CDKL3 (Homo sapiens (Human), UniProt Q8IVW4)
Outline: as §1

HIPK2 = HIPK2 (Homo sapiens (Human), UniProt Q9H2X6)
Outline: as §1

PAK3 = PAK3 (Homo sapiens (Human), UniProt O75914)
Outline: as §1

CAMK1G = CAMK1G (Homo sapiens (Human), UniProt Q96NX5)
Outline: as §1

PIK3C2B = PIK3C2B (Homo sapiens (Human), UniProt O00750)
Outline: as §1

TIE1 = TIE1 (Homo sapiens (Human), UniProt P35590)
Outline: as §1

ACVRL1 = ACVRL1 (Homo sapiens (Human), UniProt P37023)
Outline: as §1

GSK3A = GSK3A (Homo sapiens (Human), UniProt P49840)
Outline: as §1

PYK2 = PYK2 (Homo sapiens (Human), UniProt Q14289)
Outline: as §1

PIK3CA(C420R) = PIK3CA(C420R) (Homo sapiens (Human), UniProt P42336, C420R)
Outline: as §1

ASK1 = ASK1 (Homo sapiens (Human), UniProt Q99683)
Outline: as §1

CDK4-cyclinD1 = CDK4-cyclinD1 (Homo sapiens (Human), UniProt P11802)
Outline: as §1

MUSK = MUSK (Homo sapiens (Human), UniProt O15146)
Outline: as §1

CCNc1cc(Nc2ccc(C(=O)N3CCC(N4CCOCC4)CC3)cc2OC)nc2[nH]cc(C#N)c12 [Example 18, 4-(ethylamino)-6-((2-methoxy-4-(4-morpholinopiperidine-1-carbonyl)phenyl)amino)-1H-pyrrolo[2,3-b]pyridine-3-carbonitrile]
remaining binding at 1 µM (CDK11): 98%
remaining binding at 1 µM (CDKL1): 89%
remaining binding at 1 µM [1]: 67%
remaining binding at 1 µM (AMPK-alpha1): 92%
remaining binding at 1 µM (EPHA1): 91%
remaining binding at 1 µM (TGFBR1): 100%
remaining binding at 1 µM (CAMK1B): 34%
remaining binding at 1 µM (LKB1): 62%
remaining binding at 1 µM (ICK): 84%
remaining binding at 1 µM (FLT3): 83%
remaining binding at 1 µM (ROS1): 83%
remaining binding at 1 µM (NDR2): 95%
remaining binding at 1 µM (RIOK3): 98%
remaining binding at 1 µM (RIPK1): 94%
remaining binding at 1 µM (PLK1): 41%
remaining binding at 1 µM (NEK5): 92%
remaining binding at 1 µM (CSF1R): 73%
remaining binding at 1 µM (PDGFRA): 77%
remaining binding at 1 µM (PAK4): 88%
remaining binding at 1 µM (ZAK): 96%
remaining binding at 1 µM (TIE2): 82%
remaining binding at 1 µM (MLCK): 87%
remaining binding at 1 µM [2]: 92%
remaining binding at 1 µM (CHEK1): 100%
remaining binding at 1 µM (PCTK1): 98%
remaining binding at 1 µM (QSK): 92%
remaining binding at 1 µM (CDKL3): 100%
remaining binding at 1 µM (HIPK2): 68%
remaining binding at 1 µM (PAK3): 93%
remaining binding at 1 µM (CAMK1G): 71%
remaining binding at 1 µM (PIK3C2B): 100%
remaining binding at 1 µM (TIE1): 88%
remaining binding at 1 µM (ACVRL1): 80%
remaining binding at 1 µM (GSK3A; GSK3A, 1 uM): 100%
remaining binding at 1 µM (PYK2): 60%
remaining binding at 1 µM (PIK3CA(C420R)): 87%
remaining binding at 1 µM (ASK1): 79%
remaining binding at 1 µM (CDK4-cyclinD1): 100%
remaining binding at 1 µM (MUSK): 97%

CCNc1cc(Nc2ccc(C(=O)N3CCC(N4CCOCC4)CC3)cc2OC)nc2[nH]cc(C(F)(F)F)c12 [Example 57, (4-((4-(ethylamino)-3-(trifluoromethyl)-1H-pyrrolo[2,3-b]pyridin-6-yl)amino)-3-methoxyphenyl) (4-morpholinopiperidin-1-yl)methanone]
remaining binding at 1 µM (CDK11): 67%
remaining binding at 1 µM (CDKL1): 63%
remaining binding at 1 µM [1]: 100%
remaining binding at 1 µM (AMPK-alpha1): 75%
remaining binding at 1 µM (EPHA1): 78%
remaining binding at 1 µM (TGFBR1): 69%
remaining binding at 1 µM (CAMK1B): 81%
remaining binding at 1 µM (LKB1): 92%
remaining binding at 1 µM (ICK): 100%
remaining binding at 1 µM (FLT3): 100%
remaining binding at 1 µM (ROS1): 69%
remaining binding at 1 µM (NDR2): 80%
remaining binding at 1 µM (RIOK3): 96%
remaining binding at 1 µM (RIPK1): 92%
remaining binding at 1 µM (PLK1): 100%
remaining binding at 1 µM (NEK5): 91%
remaining binding at 1 µM (CSF1R): 72%
remaining binding at 1 µM (PDGFRA): 100%
remaining binding at 1 µM (PAK4): 93%
remaining binding at 1 µM (ZAK): 87%
remaining binding at 1 µM (TIE2): 89%
remaining binding at 1 µM (MLCK): 78%
remaining binding at 1 µM [2]: 75%
remaining binding at 1 µM (CHEK1): 91%
remaining binding at 1 µM (PCTK1): 83%
remaining binding at 1 µM (QSK): 87%
remaining binding at 1 µM (CDKL3): 61%
remaining binding at 1 µM (HIPK2): 100%
remaining binding at 1 µM (PAK3): 83%
remaining binding at 1 µM (CAMK1G): 63%
remaining binding at 1 µM (PIK3C2B): 78%
remaining binding at 1 µM (TIE1): 100%
remaining binding at 1 µM (ACVRL1): 89%
remaining binding at 1 µM (GSK3A): 90%
remaining binding at 1 µM (PYK2): 76%
remaining binding at 1 µM (PIK3CA(C420R)): 100%
remaining binding at 1 µM (ASK1): 77%
remaining binding at 1 µM (CDK4-cyclinD1): 95%
remaining binding at 1 µM (MUSK): 100%
